Format in all cases: biochemical
The target of test [1] is PTPγ (Homo sapiens, UniProt P23470). Kind of test: PTP inhibition assay (pNPP).
Test [2] deals with T1, MKP3 (Homo sapiens, UniProt Q16828).
T1 sequence (Q16828 1-381): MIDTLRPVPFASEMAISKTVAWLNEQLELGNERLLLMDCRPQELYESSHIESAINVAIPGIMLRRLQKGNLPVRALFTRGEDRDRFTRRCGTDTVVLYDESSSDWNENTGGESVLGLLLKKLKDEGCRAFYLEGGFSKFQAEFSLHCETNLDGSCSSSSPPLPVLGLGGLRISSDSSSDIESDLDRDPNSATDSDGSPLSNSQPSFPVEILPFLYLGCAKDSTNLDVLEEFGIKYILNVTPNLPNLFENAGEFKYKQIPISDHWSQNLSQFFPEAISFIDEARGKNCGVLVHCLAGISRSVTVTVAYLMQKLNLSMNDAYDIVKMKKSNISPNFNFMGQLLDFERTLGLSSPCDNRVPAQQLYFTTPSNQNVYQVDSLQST
As to the kind of experiment: PTP inhibition assay (pNPP).

Test [3] addresses T2, Meg2 (Homo sapiens, UniProt P43378).
T2 sequence (P43378 1-593): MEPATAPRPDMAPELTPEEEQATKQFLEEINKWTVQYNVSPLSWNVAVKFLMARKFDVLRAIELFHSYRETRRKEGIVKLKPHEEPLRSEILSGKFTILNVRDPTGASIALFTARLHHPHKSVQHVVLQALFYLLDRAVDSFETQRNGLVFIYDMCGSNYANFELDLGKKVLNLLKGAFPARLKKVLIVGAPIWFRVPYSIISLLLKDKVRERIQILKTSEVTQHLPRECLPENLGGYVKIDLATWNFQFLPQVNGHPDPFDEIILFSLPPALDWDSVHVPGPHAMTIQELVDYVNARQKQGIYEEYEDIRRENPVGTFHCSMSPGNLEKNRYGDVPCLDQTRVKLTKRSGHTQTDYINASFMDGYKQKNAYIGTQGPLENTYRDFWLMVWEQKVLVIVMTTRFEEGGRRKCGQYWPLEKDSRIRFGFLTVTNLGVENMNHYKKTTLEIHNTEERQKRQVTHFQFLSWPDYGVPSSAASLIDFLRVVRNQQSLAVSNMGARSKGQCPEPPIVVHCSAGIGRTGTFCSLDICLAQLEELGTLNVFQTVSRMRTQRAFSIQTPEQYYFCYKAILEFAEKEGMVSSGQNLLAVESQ
As to the kind of experiment: PTP inhibition assay (pNPP).

In test [4] the target is T3, SHP2 (Homo sapiens, UniProt Q06124).
T3 sequence (Q06124 224-528): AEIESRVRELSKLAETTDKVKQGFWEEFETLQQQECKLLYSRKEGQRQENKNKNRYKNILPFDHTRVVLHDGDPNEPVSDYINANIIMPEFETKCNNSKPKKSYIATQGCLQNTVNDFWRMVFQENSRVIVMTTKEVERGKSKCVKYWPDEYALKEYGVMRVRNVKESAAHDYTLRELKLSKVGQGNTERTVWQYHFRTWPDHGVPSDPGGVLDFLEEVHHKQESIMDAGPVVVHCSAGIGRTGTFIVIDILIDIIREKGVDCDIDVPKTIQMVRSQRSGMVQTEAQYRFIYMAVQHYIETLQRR
Kind of test: SHP2 phosphatase inhibition assay (pNPP). Particulars: pNPP at Km, pH 7.0, 25° C.; read-out: IC50 SHP2.

Test [5] deals with T4, PEST (Homo sapiens, UniProt Q05209).
T4 sequence (Q05209 1-780): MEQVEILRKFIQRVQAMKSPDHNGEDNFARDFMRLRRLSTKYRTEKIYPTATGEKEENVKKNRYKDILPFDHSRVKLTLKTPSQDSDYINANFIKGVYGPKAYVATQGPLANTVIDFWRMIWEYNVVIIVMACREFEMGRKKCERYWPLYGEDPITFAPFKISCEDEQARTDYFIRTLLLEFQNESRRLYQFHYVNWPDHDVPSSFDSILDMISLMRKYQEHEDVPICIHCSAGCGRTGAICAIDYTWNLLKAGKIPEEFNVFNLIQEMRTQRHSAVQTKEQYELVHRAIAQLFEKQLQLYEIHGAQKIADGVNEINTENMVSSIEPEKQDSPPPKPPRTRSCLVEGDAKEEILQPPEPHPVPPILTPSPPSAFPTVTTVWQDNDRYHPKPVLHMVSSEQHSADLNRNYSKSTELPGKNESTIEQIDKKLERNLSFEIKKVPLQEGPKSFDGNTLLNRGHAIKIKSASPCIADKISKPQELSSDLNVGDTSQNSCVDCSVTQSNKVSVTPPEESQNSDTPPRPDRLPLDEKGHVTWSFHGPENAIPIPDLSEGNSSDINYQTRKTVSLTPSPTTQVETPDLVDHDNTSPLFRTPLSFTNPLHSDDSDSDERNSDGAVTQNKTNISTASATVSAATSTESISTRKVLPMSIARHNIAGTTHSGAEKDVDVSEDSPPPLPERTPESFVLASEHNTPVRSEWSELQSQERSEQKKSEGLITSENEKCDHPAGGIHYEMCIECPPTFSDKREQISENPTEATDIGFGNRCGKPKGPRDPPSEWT
As to the kind of experiment: PTP inhibition assay (pNPP). Particulars: pNPP at Km, pH 7.0, 25° C.; read-out: IC50 PEST.

In test [6] the target is T5, Laforin (Homo sapiens, UniProt O95278).
T5 sequence (O95278 1-331): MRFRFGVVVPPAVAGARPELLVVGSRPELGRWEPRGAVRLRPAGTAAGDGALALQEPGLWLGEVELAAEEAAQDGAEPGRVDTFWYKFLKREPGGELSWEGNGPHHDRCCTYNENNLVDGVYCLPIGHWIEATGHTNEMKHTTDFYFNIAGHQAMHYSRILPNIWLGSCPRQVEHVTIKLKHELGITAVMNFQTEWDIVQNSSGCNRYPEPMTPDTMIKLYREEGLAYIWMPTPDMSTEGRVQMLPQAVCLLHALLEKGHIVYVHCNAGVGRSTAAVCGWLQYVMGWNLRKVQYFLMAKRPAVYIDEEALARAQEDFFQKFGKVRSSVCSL
As to the kind of experiment: PTP inhibition assay (pNPP). Particulars: for pIC50: pNPP at Km, pH 7.0, 25° C., read-out: IC50 Laforin.

Test [7] has as its target T6, Ssu72 (Homo sapiens, UniProt Q9NP77).
T6 sequence (Q9NP77 1-194): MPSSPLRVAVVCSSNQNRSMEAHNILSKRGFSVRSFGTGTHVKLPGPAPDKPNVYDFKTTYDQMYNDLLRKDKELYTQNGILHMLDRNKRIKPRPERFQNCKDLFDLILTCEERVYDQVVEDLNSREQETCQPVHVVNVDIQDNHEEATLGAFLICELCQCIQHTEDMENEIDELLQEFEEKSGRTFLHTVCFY
As to the kind of experiment: PTP inhibition assay (pNPP). Particulars: pNPP at Km, pH 7.0, 25° C.; read-out: IC50 Ssu72.

Molecules are shown by their SMILES. pIC50: −log10 of the molar value.

Sequence of PTPγ (P23470 20-1445): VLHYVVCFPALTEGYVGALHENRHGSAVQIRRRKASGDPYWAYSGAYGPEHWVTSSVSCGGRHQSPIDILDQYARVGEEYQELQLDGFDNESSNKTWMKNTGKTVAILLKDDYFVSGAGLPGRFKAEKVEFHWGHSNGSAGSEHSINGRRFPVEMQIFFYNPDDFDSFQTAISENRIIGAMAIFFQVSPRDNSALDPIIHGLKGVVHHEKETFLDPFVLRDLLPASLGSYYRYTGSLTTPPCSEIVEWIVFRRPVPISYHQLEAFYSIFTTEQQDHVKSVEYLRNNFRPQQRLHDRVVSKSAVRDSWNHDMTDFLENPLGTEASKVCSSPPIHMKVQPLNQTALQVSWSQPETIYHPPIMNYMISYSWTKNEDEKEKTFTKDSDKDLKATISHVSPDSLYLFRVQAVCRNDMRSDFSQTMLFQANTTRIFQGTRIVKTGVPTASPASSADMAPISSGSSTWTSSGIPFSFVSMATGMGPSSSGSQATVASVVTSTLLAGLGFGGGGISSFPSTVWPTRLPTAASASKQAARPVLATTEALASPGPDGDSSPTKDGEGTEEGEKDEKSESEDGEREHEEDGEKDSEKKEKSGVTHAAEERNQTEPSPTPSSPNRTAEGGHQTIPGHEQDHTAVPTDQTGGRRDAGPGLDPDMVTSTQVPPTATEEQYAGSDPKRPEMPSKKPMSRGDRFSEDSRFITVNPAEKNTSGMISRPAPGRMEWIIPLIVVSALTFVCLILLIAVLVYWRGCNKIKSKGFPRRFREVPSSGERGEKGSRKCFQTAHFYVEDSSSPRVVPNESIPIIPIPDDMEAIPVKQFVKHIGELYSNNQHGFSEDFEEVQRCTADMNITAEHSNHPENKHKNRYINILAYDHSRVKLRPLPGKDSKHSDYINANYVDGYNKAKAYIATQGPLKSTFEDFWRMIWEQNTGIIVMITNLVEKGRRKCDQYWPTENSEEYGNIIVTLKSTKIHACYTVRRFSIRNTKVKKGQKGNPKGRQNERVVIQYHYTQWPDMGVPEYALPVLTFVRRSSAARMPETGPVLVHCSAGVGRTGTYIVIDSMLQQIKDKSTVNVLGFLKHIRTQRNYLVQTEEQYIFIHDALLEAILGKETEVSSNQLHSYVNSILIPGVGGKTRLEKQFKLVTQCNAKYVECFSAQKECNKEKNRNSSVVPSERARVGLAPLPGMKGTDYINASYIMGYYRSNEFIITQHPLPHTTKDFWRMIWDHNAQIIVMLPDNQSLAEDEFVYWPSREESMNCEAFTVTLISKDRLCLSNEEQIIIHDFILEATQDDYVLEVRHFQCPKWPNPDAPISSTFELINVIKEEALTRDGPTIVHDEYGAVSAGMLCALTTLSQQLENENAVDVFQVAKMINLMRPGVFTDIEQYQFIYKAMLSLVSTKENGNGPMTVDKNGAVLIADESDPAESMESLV

In general, pIC50 refers to the IC50 on a negative log10 scale, so that one unit is a factor of ten. Take `O=C(C(c1ccccc1)S(=O)(=O)O)N1CCCC2CCCCC21` (stereo not shown) [Compound L319N53]: the negative-log IC50 (pIC50) in test [1], in test [2], in test [3], in test [4], in test [5] and in test [6] was less than 3.70 each time. Further, in test [7], the negative-log IC50 (pIC50) is less than 3.70.

Turning to `O=C(CS(=O)(=O)O)Nc1nc2ccc([N+](=O)[O-])cc2s1` [Compound L335N15-07], the pIC50 in test [1], in test [2], in test [3], in test [4], in test [5] and in test [6] was less than 4.00 each time. For the same compound, in test [7], the pIC50 was less than 4.00. For the same compound, the “Inhibition of Laforin at 100 μM” value in test [6] (100 μM) is given as “no detectable inhibition”.

As for `O=C(CS(=O)(=O)O)Nc1nc2ccccc2s1` [Compound L335N15], the negative logarithm of the IC50 (pIC50) in test [1], in test [2], in test [3], in test [4], in test [5] and in test [6] was less than 4.00 in each case. Also, the pIC50 in test [7] was less than 4.00.

The record behind these values is patent publication US10494332B2, “Protein tyrosine phosphatases or SHP2 inhibitors and uses thereof” (Indiana University Research and Technology Corporation, priority 2015, dated 2019).
